Measurements reported in PMC10009108, “Design, synthesis and screening of indole acetic acid-based tri-azo moieties as antioxidants, anti-microbial and cytotoxic agents” (Frontiers in Pharmacology, 2023).
Values after ≈ are worked out from the molar mass of the structure shown.

Key:
[1] = test system: Pseudomonas aeruginosa (ATCC-15442); assay: Antibacterial assay, micro broth dilution; format: cell-based; set-up: key: Active = Bacterial activity; --- = no activity; conditions: 25 μg/mL
[2] = test system: Staphylococcus aureus (ATCC-6538); assay: Antibacterial assay, micro broth dilution; format: cell-based; set-up: key: Active = Bacterial activity; --- = no activity; conditions: 25 μg/mL
[3] = test system: Escherichia coli (ATCC-25922); assay: Antibacterial assay, micro broth dilution; format: cell-based; set-up: key: Active = Bacterial activity; --- = no activity; conditions: 25 μg/mL
resistant E.coli = assay: Antibacterial assay, resistant strains; format: cell-based, Escherichia coli; set-up: key to Antibacterial activity, resistant E.coli: Activity: Positive = have anti-bacterial activity; --- = no anti-bacterial activity; conditions: 25 μg/mL; resistant strain
Source text: (§1) The micro broth dilution method was used to establish the antibacterial potential of test samples against Staphylococcus aureus (ATCC-6538), Bacillus subtilis (ATCC-6633), Escherichia coli (ATCC-25922), Klebsiella pneumoniae (ATCC-1705), and Pseudomonas aeruginosa (ATCC-15442) and for the resistant strains of MRSA Staphylococcus aureus, P. aeruginosa and Escherichia coli. The procedure used is described by ([Sarker et al., 2007]). Bacterial inoculum was formed under aseptic conditions keeping the density near 5 × 10^4 CFU/mL in pre-autoclaved nutrient broth. Test samples of an aliquot of 5 µL were shifted to labeled wells of 96 well plates, and after that addition of 195 µL of nutrient broth; was accomplished. After that, a 2-fold serial dilution of every sample was arranged to get final concentrations of 12.5 μg/mL. Then, with the help of a micropipette, 195 µL of bacterial culture of respective strains was poured into each well; further advancement was incubating of plates for 30 min at the temperature of 37°C. […] Incubation of plates was again carried out at 37°C for 1 day, absorbance was noted, and net change in turbidity was the difference between two values of absorbance.
(§2) Schiff base tri-azo compounds were investigated for antibacterial potential. […] 6.25 μg/mL for 5b and 5g, and the least, Table 4 3.12 μg/mL was for 5f. […] Substituents with electron-withdrawing attributes, e.g., -NO2, -Cl, -OH on the aromatic ring, assert a great impact on the antibacterial activity of synthetic compounds. It is also observed that an increase in the number of -OH groups tend to enhance the activity ([Hosamani and Shingalapur, 2011]). Due to the difference in cell-wall composition of Gram + ve and -ve bacteria, different compounds show different features towards the same micro-organism ([Goszczyn’ska et al., 2015]).

in vivo = assay: in vivo
Protocol: The cytotoxic evaluation was accomplished using the decorum designed by ([Khan et al., 2011]). To a plate of 96 wells, artificial seawater and nauplii were added. Test samples were taken in wells (40, 20, 10, 5 μg/mL) after making up the final volume with seawater, the plates were left uncovered under the lamp, and after 24 h, the number of surviving larvae was calculated. For samples having ≥50% mortality, the median lethal conc was calculated using the table curve software, Doxorubicin was used as + ve control, and DMSO was the -ve. The percentage of killed organisms was found using the formula. Percentage Mortality=No of dead shrimps÷Total Number of Shrimps×100
The results of all the experiments were articulated as mean ± SD. Each test was performed in triplicate. TAC assay was analyzed by one-way analysis of variance (ANOVA) following DUNCAN’S test using the statistical package for social sciences 18 and p < 0.05 was considered as significant where appropriate. For samples having ≥50% mortality, the median lethal concentration (LC50) was calculated using the table curve software.
This evaluation test forms the basis for the bioactive scanning of compounds for their potential as anti-cancer moieties, to be investigated on a large scale ([Amanullah et al., 2012]). […] Similarities between Artemia salina and mammalian cells have been reported due to DNA-dependent RNA polymerases ([Birndorf et al., 1975]). These Schiff bases were investigated for their cytotoxic potential. […] Doxorubicin was used as the positive control.

[4] = test system: Klebsiella pneumoniae (ATCC-1705); assay: Antibacterial assay, micro broth dilution; format: cell-based
Source text: as §1, §2

[5] = DPPH free radical scavenging assay; conditions: at 50 μg/mL
Protocol: The DPPH assay was executed via the technique stated by ([Bibi et al., 2011]). DPPH(Diphenyl-1-picrylhydrazyl), a free radical, is bagged to inquire about the antioxidant ability of the synthesized compounds. 10 μL from the synthesized compound (1 mg/mL DMSO) is added to 190 μL DPPH solution., making up the final conc. of 50 μg/mL.
DPPH assay was repeated in triplicate using DMSO as -ve and ascorbic acid as + ve control; findings are expressed as means standard deviation.
It is one of the very commonly utilized methods for the assessment of the antioxidant ability of compounds. DPPH turns from purple to yellow, which indicates the synthetic compound’s scavenging potential ([Rahman et al., 2017]). DMSO and A.A. were used as -ve and +ve control. The antioxidant potential of compounds was assessed at 50 μg/mL, 25 μg/mL, 12.5 μg/mL, and 6.25 μg/mL. […] Production of free radicals is an outcome of regular oxygen consumption in the body; whenever something is missing with the natural antioxidant mechanism, the accumulation of these free radicals may lead to cytotoxic interaction with the body systems and may cause damage to genomic content of various cells, and proteins in the body ([Barbuceanu et al., 2014]). Free radical accumulation is also associated with different diseases, e.g., coronary heart disease, neuronic disorders, diabetes, necrosis, and various tumors ([Ismaili.et al., 2008]). The antioxidant potential of the compound depends upon its reducing power; the introduction of hydroxy and methoxy groups on the Benzene ring led to better reducing power or promising antioxidant activity ([Rakesh et al., 2015]).

[6] = Total reducing power (TRP assay); conditions: mean ± SD
Protocol: The process used for TRP was illustrated by ([Bibi et al., 2011]). The […] method is used for 100 μL of each solution, 200 μL Phosphate buffer (0.2 M, pH 6.6), and 250 μL of potassium ferricyanide was mixed and incubated at 50°C for 20 min, to this solution, 10 percent (200 μL) trichloroacetic acid was added, centrifugation was done at 3,000 rpm for 10 min, the supernatant was collected, added with FeCl3 (50 μL), and shifted to the microplate. Absorbance was recorded at 700 nm. Ascorbic acid (100 μg/mL DMSO) is the +ve control for the test, and dimethyl sulfoxide (DMSO) is the blank.
The primary mechanism of TRP assay is based on the compound’s capacity to reduce free radicals, which are generated during the procedure. i.e., Fe^3+ is reduced to Fe^2+ ([Lee et al., 2015]). Various factors determine the antioxidant potential of the compound; a few to explain include the chemical attributes, nature of antioxidant moieties, conditions and mechanism of the reaction, which accounts for the reason for a compound’s activity in one assay and none-to-less response in the other ([Francenia Santos-Sanchez et al., 2019]). However, compounds with hydroxyl and methoxy groups form the bases for potential candidates as an antioxidant ([Rakesh et al., 2015]).

SMILES	Antibacterial activity, Pseudomonas aeruginosa: Activity [1]	Antibacterial activity, S. aureus: Activity [2]	Antibacterial activity, E. coli: Activity [3]	Antibacterial activity, resistant E.coli: Activity (resistant E.coli)	LC50 at 24 h (in vivo)	MIC ([4]; ATCC1705)	MIC ([4]; ATCC1705, 24 h)	%DPPH inhibition (% free radical scavenging) [5]	TRP [6]
S=c1[nH]nc(Cc2c[nH]c3ccccc23)n1N=Cc1cccc(Cl)c1 [Compound 5f]	---	Active	---	---	5.7 µg/mL (≈ 15.5 µM)	3.12 µg/mL (≈ 8.48 µM)	3.12 µg/mL (≈ 8.49 µM)		
S=c1[nH]nc(Cc2c[nH]c3ccccc23)n1N=Cc1ccc(Cl)cc1 [Compound 5c]	---	---	Active	---	5.7 µg/mL (≈ 15.5 µM)	12.5 µg/mL (≈ 34 µM)		11.1%	
Oc1ccc(C=Nn2c(Cc3c[nH]c4ccccc34)n[nH]c2=S)cc1 [Compound 5e]	Active	---	Active	---	14.1 µg/mL (≈ 40.5 µM)	12.5 µg/mL (≈ 35.8 µM)		8.3%	619.18 ± 0.010 µg AAE/mg
O=[N+]([O-])c1ccc(C=Nn2c(Cc3c[nH]c4ccccc34)n[nH]c2=S)cc1 [Compound 5d]	---	---	Active	---	5.7 µg/mL (≈ 15.1 µM)	12.5 µg/mL (≈ 33 µM)		11.1%	
COc1cc(C=Nn2c(Cc3c[nH]c4ccccc34)n[nH]c2=S)cc(OC)c1OC [Compound 5g]	---	Active	---	---	18.2 µg/mL (≈ 42.9 µM)	6.25 µg/mL (≈ 14.8 µM)			642.67 ± 0.001 µg AAE/mg
Oc1cccc(C=Nn2c(Cc3c[nH]c4ccccc34)n[nH]c2=S)c1 [Compound 5a]	Active				11.2 µg/mL (≈ 31.9 µM)	12.5 µg/mL (≈ 35.8 µM)			592.26 ± 0.007 µg AAE/mg
COc1cccc(C=Nn2c(Cc3c[nH]c4ccccc34)n[nH]c2=S)c1 [Compound 5b]	Active	---	---	---	14.1 µg/mL (≈ 38.9 µM)	6.25 µg/mL (≈ 17.2 µM)		32%	706.42 ± 0.004 µg AAE/mg
